Experimental data from PMC2852844, “Anti-Parasitic Compounds from Streptomyces sp. Strains Isolated from Mediterranean Sponges” (Marine Drugs, 2010).
Read-outs that look alike come from different tables or passages of the source.

What was measured:
[1] = system: Trypanosoma brucei brucei laboratory strain TC 221; assay: Trypanosoma brucei brucei trypomastigote growth inhibition (Alamar Blue); assay type: cell-based
Experimental: [22] Trypomastigote forms of Trypanosoma brucei brucei laboratory strain TC 221 were cultured in complete Baltz medium [80 mL Baltz medium basic solution, 0.8 mL 2 mercaptoethanol stock solution (20 mM), 0.8 mL penicillin/streptomycin (10,000 U/mL), 16 mL FCS (inactivated for 30 min at 56 °C). Baltz medium basic solution is composed of the following: 500 mL MEM with Earle’s salts and L-glutamine, 3 g Hepes, 0.5 g monohydrate glucose, 0.110 g sodium pyruvate, 0.007 g hypoxanthine, 0.002 g thymidine, 0.0107 g adenosine, 0.0141 g bathocuproine disulfonic acid disodium salt, 0.146 g glutamine, 5 mL sterile non-essential amino acid concentrate (100×, pH 7.5). A defined number of parasites ([…]) were exposed in test chambers of 96-well plates to various concentrations of the test substances (previously dissolved in DMSO) to make a final volume of 200 μL in duplicates. Positive (trypanosomes in culture medium) and negative controls (test substance without trypanosomes) were run simultaneously with each plate. The plates were then incubated at 37 °C in an atmosphere of 5% CO2 for a total time period of 72 h. After 24 h, 20 μL of Alamar Blue was added. […]. The first reading was done at 48 h and subsequently at 72 h. The effect of the test substances was quantified in IC50 values by linear interpolation of three independent measurements.

in vitro = settings: human
Experimental: (§1) Following the addition of 20 μL of Alamar Blue, the plates were incubated and the ODs measured at 24 h, 48 h and 72 h.

[2] = system: Leishmania major promastigotes; assay: Leishmania major promastigote growth inhibition (Alamar Blue); assay type: cell-based
Experimental: Leishmania major promastigotes were seeded at a cell density of 1 × 10^7 cells/mL into 96-well plates in complete medium (RPMI with NaHCO3, 10% FCS, 2 mM glutamine, 10 mM Hepes pH 7.2, 100 U/mL penicillin, 50 μg/mL gentamicin, 50 mM 2-mercaptoethanol) without phenol red (200 mL), in the absence or presence of different concentrations of the compounds. These were then incubated for 24 h at 26 °C, 5% CO2 and 95% humidity. Following the addition of 20 mL of Alamar Blue, the plates were incubated again and the optical densities (ODs) measured 24 h and 48 h later with an enzyme-linked immunosorbent assay (ELISA) reader (Multiskan Ascent, Germany) using a test wavelength of 540 nm and a reference wavelength of 630 nm. Absorbance in the absence of compounds was set as 100% of growth. Amphotericin B was used as a reference compound and positive control. The effects of cell density, incubation time and the concentration of DMSO were examined in control experiments. The final concentration of DMSO in the medium never exceeded 1% vol/vol and had no effect on the proliferation of extracellular or intracellular parasites. For each experiment, each drug concentration was assayed in duplicate wells [31]

[3] = Cytotoxicity against J774.1 macrophages (Alamar Blue); settings: mouse
Experimental: as §1

[4] = Cytotoxicity against 293T kidney epithelial cells (Alamar Blue); settings: human
Experimental: as §1

SMILES	IC50 ([1]; reading at 48 h, read-out: IC50 Trypanosoma brucei brucei (48 h)) [µM]	IC50 ([1]; reading at 72 h, read-out: IC50 Trypanosoma brucei brucei (72 h)) [µM]	IC50 (in vitro) [µM]	IC50 [2] [µM]	IC50 ([1]; 48 h, read-out: IC50 Trypanosoma brucei brucei (48 h)) [µM]	IC50 ([1]; 72 h, read-out: IC50 Trypanosoma brucei brucei (72 h)) [µM]	IC50 at 24 h [3] [µM]	IC50 at 24 h [4] [µM]
CN[C@@H]1C[C@H]2O[C@@](C)([C@@H]1OC)n1c3ccccc3c3c4c(c5c6ccccc6n2c5c31)C(=O)NC4 [staurosporine]	0.022	0.035	1.3	–	–	–	–	–
CC(C)[C@@H]1NC(=O)[C@H](C)OC(=O)[C@@H](C(C)C)NC(=O)[C@@H](C(C)C)OC(=O)[C@H](C(C)C)NC(=O)[C@H](C)OC(=O)[C@@H](C(C)C)NC(=O)[C@@H](C(C)C)OC(=O)[C@H](C(C)C)NC(=O)[C@H](C)OC(=O)[C@@H](C(C)C)NC(=O)[C@@H](C(C)C)OC1=O [valinomycin]	–	–	–	< 0.11	0.0032	0.0036	< 0.1	11.2
